Article PMC7321210, “Synthesis and Studies of the Inhibitory Effect of Hydroxylated Phenylpropanoids and Biphenols Derivatives on Tyrosinase and Laccase Enzymes” (Molecules, 2020)
Entries after “also recorded” stand apart in the source; their conditions may differ.

Assays:
mushroom tyrosinase = test: Spectrophotometric (UV-Vis) detection of tyrosinase inhibitory activity; assay type: biochemical; details: for tyrosinase inhibition in words, tyrosine versus dopamine as substrate: UV-Vis, absorbance at 311 or 472 nm, Figure 3
Method: Kinetic assays were carried out by measuring the appearance of the product of either tyrosine or dopamine oxidation in the reaction medium at 311 and 472 nm, respectively, in a Shimadzu UV-2501 spectrophotometer (Shimadzu, Kyoto, Japan) equipped with the UV-Probe software, using a tandem quartz cuvette (Hellma, Milan, Italy) with a 2 × 4.375-mm path length [1, 2, 51]. Briefly, one side of the dual chamber cuvette was filled with 1000 µl of mushroom tyrosinase solution in 50 mM phosphate buffer, pH 6.8, 166 Units/mL using tyrosine as substrate or a 16.6 Units/mL when dopamine was used as substrate. The other chamber was loaded with 980 µL of substrate solution (180 µM tyrosine or 18 µM dopamine) in 20 mM phosphate buffer (pH 6.8) added of either 20 µL of DMSO (control) or 20 µL of a 2 mM (0.2 mM in dopamine experiments) solution of tested inhibitors in DMSO. A background spectrum in the 250–700 nm range was acquired with a 2.0 nm slit and fast speed before starting the reaction. Thereafter, the solutions in the two chambers were mixed by inversion and the UV-Vis spectra were acquired at increasing time intervals. Spectra were recorded at 311 or 472 nm in the presence of the inhibitor before mixing, and after either 24 or 10 min, using tyrosine or dopamine as a substrate, respectively. Data processing was performed with UV Probe and OriginPro 2019 (v. 9.60) softwares.
The mushroom tyrosinase was used as purchased without further purification. All solutions (tyrosinase, substrates and inhibitors) were filtered through a 0.45-μm syringe filter, aliquoted in Eppendorf tubes, and stored in freezer. The relative concentration was determined spectrophotometrically (εtyrosine 274.6 nm = 1420 M^−1·cm^−1; εdopamine at 280 nm = 2670 M^−1·cm^−1; εtyrosinase at 280 nm = 1426 M^−1·cm^−1).
Tyrosine was dissolved in 50 mM phosphate buffer, pH 6.8, final concentration 80 µM and with the added inhibitor (final concentration 20 µM) and tyrosinase (83 U/mL). The absorbance values were determined after 24 min of incubation. In the presence of dopamine, experiments were performed using 10-fold diluted solutions, and the absorbance values were determined after 10 min of incubation.

tyrosinase = tyrosinase (Agaricus bisporus, UniProt C7FF04); test: Tyrosinase amperometric biosensor: IC50 and type of inhibition; assay type: biochemical; details: for Type of Inhibition Tyrosinase: Lineweaver-Burk plot, biosensor exposed 30 min to twice the lowest inhibiting concentration; for VMAX, substrate + inhibitor, TYR: dopamine calibration 0-140 mM after inhibitor exposure, n=4 biosensors;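 for all read-outs here: Carbon-composite amperometric tyrosinase biosensors with polyurethane-entrapped enzyme, calibrated in a three-electrode cell against Ag/AgCl at room temperature, before versus after inhibitor exposure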
Method: (§1) Inhibition types and IC50 were assessed by means of carbon-based amperometric biosensors [61, 62, 63, 64, 65], that are described in the Supplementary Materials. During the experiments carried out to determine the IC50 values, the lowest inhibitory concentration of each compound was also evaluated.
(§2) To verify the inhibition types, the following protocol was used. An initial calibration with dopamine, ranging between 0 and 140 mM, was performed in order to ascertain the values of VMAX and KM. Another calibration with the same protocol was performed after having exposed the biosensors to twice the lowest inhibiting concentration of each inhibitor, in order to ensure the safe inhibition of enzymatic activity. The biosensors were exposed to the inhibitor for 30 min and after having reached a stabile baseline, a calibration with dopamine, ranging between 0 and 140 mM, was performed and the value of VMAX and KM were calculated. The variations of both VMAX and KM were then analyzed by using the Lineweaver-Burk plot in order to identify the type of inhibition induced by the tested compound. The statistical difference in VMAX and KM, before exposing the biosensors to the inhibitor and then afterwards, was calculated by means of a paired t-test (p < 0.05).
(§3) The biosensors were prepared starting from a Teflon™-insulated silver wire (30 mm in length; Ø = 125 μm),
(§4) Briefly, 1 mm of the silver wire was exposed and then introduced into a silica
(§5) capillary cylinder (10 mm in length; I.D. Ø = 180 μm, Polymicro Technologies, Phoenix, AZ, USA) partly
(§6) packed with graphite-loaded (55% w/w) epoxy resin. By mixing 850 mg of graphite with 500 mg of Araldite-
(§7) M and 200 mg of hardener, a preliminary disc electrode of carbon-composite was fabricated (Ø = 180 μm; area:
(§8) 2.5 × 10−4 cm2) by filling the silica capillary tubing with the mixture. The silver wire assured a good electrical
(§9) contact. After 24 h at 40 °C, the electrode surface was cleaned using a high-speed drill (Dremel® 300) equipped
(§10) with an aluminum oxide grinding wheel. On top of the electrode surface a 1 µl of Tyrosinase or Laccase
(§11) solution was deposited. After the complete evaporation of water at room temperature, the biosensor was
(§12) quickly dipped in the polyurethane solution in order to entrap the enzyme on the electrode surface, and after
(§13) the complete evaporation of the solvent biosensors were put to stabilize in PBS pH=6.0 overnight.
(§14) The electrochemical measurements were performed at room temperature in a classical three-electrode
(§15) electrochemical cell consisting of four biosensors as working electrodes, a reference electrode (Ag/AgCl in
(§16) Constant potential amperometry (CPA) was used for in-vitro calibrations and for inhibition evaluation
(§17) experiments by applying a constant potential of -50 mV against an Ag/AgCl reference electrode, by means of
(§18) a four-channel potentiostat (eDAQ Quadstat, e- Corder 410, eDAQ Europe, Poland) and the software Chart (v
(§19) 5.5, eDAQ Europe, Poland). Thus, once the stabilization of the baseline of biosensors was reached, increasing
(§20) volumes of a stock solution of dopamine 1 M were added in order to obtain different concentrations ranging

PC12 cells [1] = test: Viability of PC12 cells (MTT assay); assay type: cell-based, rat; details: cell viability < 80%; screening from 1 to 40 μM, 24 h
Method: Initially, the inhibitor concentrations on PC12 cells, i.e., a rat pheochromocytoma-derived cell line, were screened to assess the possible cytotoxicity of the molecules under study [55].
(§21) 1.4 Viability and oxidative stress assays
(§22) PC12 cells, rat pheochromocytoma-derived cell line (ATCCCRL-1721) (passages 12–25) were maintained at 37
(§23) °C humidified air containing 5% CO2/95% atmospheric air and cultured in a 60 mm plastic culture plates with
(§24) Dulbecco’s modified Eagle’s medium supplemented with 10% horse serum, 5% fetal bovine serum and 1% of
(§25) penicillin/streptomycin. PC12 cells were treated for 24 h with the different compounds at different
concentrations ranging from 1 to 40 μM, to evaluate their eventual toxicity.
(§26) For all treatments cell viability was measured by means of MTT assay, as explained in
the following paragraph [17].
(§27) At the end of the exposure time of each experiment, the cell viability was assessed by means of MTT (3-(4,5-
(§28) dimethyl-thiazol-2-yl)-2,5-diphenyltetrazoliumbromide) assay. For this purpose, 1 mg/mL of MTT was added
(§29) to each sample and incubated for 4 h at 37 °C. Only viable cells are able to convert the soluble dye MTT into
(§30) the insoluble formazan crystals. After the incubation the MTT supernatant solution was removed, the cells
(§31) were washed in phosphate-buffered saline (PBS) and centrifuged while the pellet was dissolved in 2 mL of
(§32) isopropanol. After centrifugation of the solution at 4,000 rpm for 5 min, the absorbance for each sample was
(§33) assessed by means of a Bauty Diagnostic Microplate Reader at 578 nm. All experiments were performed in 24-
(§34) well plates (1 × 10^5 cells/mL/well) and repeated in triplicate.

PC12 cells [2] = test: Protection of PC12 cells against MnCl2 damage (MTT); assay type: cell-based, rat; details: concentration with significant increase in viability vs MnCl2; co-treatment with 1 mM MnCl2; n.p.: no protection
Method: as §22, §23, §24, §25
(§35) concentrations ranging from 1 to 40 μM, to evaluate their eventual toxicity. Then, in order to assess the
(§36) eventual compounds’ protection properties, PC12 cell treated with hydrogen peroxide (100μM) in association
with increasing concentration of the above-mentioned molecules, from 1 up to 20 μM. For the compounds that
against MnCl2 insult. For all treatments cell viability was measured by means of MTT assay, as explained in
as §27
For this purpose, 1 mg/mL of MTT was added
as §29
the insoluble formazan crystals. After the incubation the MTT supernatant solution was removed, the cells […]
as §32
assessed by means of a Bauty Diagnostic Microplate Reader at 578 nm. […]

laccase = test: Laccase amperometric biosensor: IC50 and type of inhibition; assay type: biochemical; details: for Type of Inhibition Laccase: Lineweaver-Burk plot, biosensor exposed 30 min to twice the lowest inhibiting concentration; for VMAX, substrate + inhibitor, LAC: dopamine calibration 0-140 mM after inhibitor exposure, n=4 biosensors; for IC50: enzyme immobilized on biosensor, dopamine 50 µM, PBS pH 6.0
Method: as §1, §2, §3, §4, §5, §6, §7, §8, §9, §10, §11, §12, §13, §14, §15, §16, §17, §18, §19, §20

PC12 cells [3] = test: Protection of PC12 cells against H2O2-induced oxidative stress (MTT); assay type: cell-based, rat; details: for H2O2 Damage Protection: concentration with significant increase in viability vs H2O2, co-treatment with 100 μM H2O2, n.p.: no protection
Method: as §21, §22, §23, §24, §25, §35, §36
with increasing concentration of the above-mentioned molecules, from 1 up to 20 μM.
as §26, §27, §28, §29, §30, §31, §32, §33, §34

Tenebrio molitor = test: Insecticidal properties on mealworm larvae; assay type: in vivo; details: Tenebrio molitor, topical, 120 h, larvae immersed three seconds in 2.5 mL acetone solution 6.4 mg/mL, reared five days; DFB as Dimilin WP 25% a.i., 25.6 mg/mL; read-out: Mortality% (Mean ± SD)
Method: Late instar larvae of Tenebrio molitor from a twenty-year-old insect culture at the Research Institute on Terrestrial Ecosystems (National Research Council, Sassari, Italy) were used in the experiments. The species was reared on bran flour, with the integration of fresh vegetables, at 25 °C, 65% relative humidity and 16:8 hours light/darkness.
One hundred medium instar larvae were isolated in a petri dishes (diam. 50 mm). They were then immersed for three seconds in 2.5 mL of an acetone solution (concentration 6.4 mg/mL w:v) of one of the fourteen compounds listed in Table 3. In addition, a treatment with the commercial formulation Dimilin (WP, 25% a.i. diflubenzuron) (acetone solution, 25.6 mg/mL w:v) and a negative control (no treatment) were tested.
After treatment, the larvae were subdivided into five 20-specimen groups and reared for five days in a small PVC box (150 L × 120 W × 50 H mm) with the same feed and conditions as standard rearing. Mortality was recorded daily.
The statistical analysis was conducted with the R software (R Development Core Team 2016). Mortality data, expressed as a percentage, were arcsin(√x)-transformed to satisfy assumptions of normality. ANOVA was performed by the Duncan test for mean separation.

Sequence of tyrosinase (C7FF04 2-392): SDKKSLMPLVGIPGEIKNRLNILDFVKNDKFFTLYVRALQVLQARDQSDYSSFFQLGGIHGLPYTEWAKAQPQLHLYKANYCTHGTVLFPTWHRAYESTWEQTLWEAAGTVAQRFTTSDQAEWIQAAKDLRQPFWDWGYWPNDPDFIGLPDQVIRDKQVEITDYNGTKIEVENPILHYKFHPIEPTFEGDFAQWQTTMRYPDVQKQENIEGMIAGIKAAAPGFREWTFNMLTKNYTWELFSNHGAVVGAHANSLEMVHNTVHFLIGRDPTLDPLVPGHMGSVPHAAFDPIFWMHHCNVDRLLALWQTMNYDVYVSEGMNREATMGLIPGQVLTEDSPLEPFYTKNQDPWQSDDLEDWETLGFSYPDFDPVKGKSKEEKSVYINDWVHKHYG

Row | % inhibition of tyrosinase (mushroom tyrosinase; comparable with both substrates, tyrosine 80 µM, inhibitor 20 µM, 24 min, dopamine 10-fold diluted solutions, 10 min) | VMAX, substrate + inhibitor, TYR (tyrosinase) | VMAX, substrate + inhibitor, LAC (laccase) | IC50 (laccase) | melting point | Compound | Type of Inhibition Tyrosinase (tyrosinase) | Toxic Concentration (PC12 cells [1]) | MnCl2 Damage Protection (PC12 cells [2]) | Type of Inhibition Laccase (laccase) | H2O2 Damage Protection (PC12 cells [3]) | tyrosinase inhibition in words, tyrosine versus dopamine as substrate (mushroom tyrosinase) | pest or weed control at 6400 µg/mL (Tenebrio molitor) | change of cell viability versus H2O2 alone, in words (PC12 cells [3]; co-treatment with 100 μM H2O2, compounds 1 up to 20 μM)
1 | 10% | 31.5±2.9 nA | 89.2±7.7 nA | 212 nM | – | COc1cc(/C=C/C(=O)c2ccccc2)ccc1O [Compound 10] | uncompetitive or mixed; also recorded: mixed | >20 µM | n.p. | competitive | 20 µM | – | – | –
2 | – | 114.1±12.5 nA | 188.4±9.0 nA | – | – | CC(=O)C=Cc1ccc(O)cc1O [Compound 7, reference compound] | competitively; also recorded: competitive | >10 µM | n.p. | competitively; also recorded: competitive | 1 µM | most active tyrosinase inhibitor in the presence of both substrates | 5 ± 7.07% | –
3 | – | 145.8±17.8 nA | 98.1±3.3 nA | 2620 nM | 260 to 262 °C | OC[C@H]1O[C@@H](Oc2ccc(-c3ccc(O)cc3)cc2)[C@H](O)[C@@H](O)[C@@H]1O [Compound 18, (2S,3R,4S,5S,6R)-2-((4’-hydroxy-[1,1’-biphenyl]-4-yl)oxy)-6-(hydroxymethyl)tetrahydro-2H-pyran-3,4,5-triol] | competitively; also recorded: competitive | none | – | competitively; also recorded: competitive | n.p. | predominant inhibition of tyrosine oxidation | – | significant decrease (p < 0.05 vs H2O2) in cells viability at all concentrations tested
